{
  "source": "ChEMBL document CHEMBL2073989",
  "about": "“Immunohistochemical distribution and functional characterization of an organic anion transporting polypeptide 2 (oatp2)” (FEBS Lett, 1999)",
  "biological_target": "T1, Solute carrier organic anion transporter family member 1A4 (Rattus norvegicus, UniProt O35913)",
  "T1 sequence (O35913 whole entry)": "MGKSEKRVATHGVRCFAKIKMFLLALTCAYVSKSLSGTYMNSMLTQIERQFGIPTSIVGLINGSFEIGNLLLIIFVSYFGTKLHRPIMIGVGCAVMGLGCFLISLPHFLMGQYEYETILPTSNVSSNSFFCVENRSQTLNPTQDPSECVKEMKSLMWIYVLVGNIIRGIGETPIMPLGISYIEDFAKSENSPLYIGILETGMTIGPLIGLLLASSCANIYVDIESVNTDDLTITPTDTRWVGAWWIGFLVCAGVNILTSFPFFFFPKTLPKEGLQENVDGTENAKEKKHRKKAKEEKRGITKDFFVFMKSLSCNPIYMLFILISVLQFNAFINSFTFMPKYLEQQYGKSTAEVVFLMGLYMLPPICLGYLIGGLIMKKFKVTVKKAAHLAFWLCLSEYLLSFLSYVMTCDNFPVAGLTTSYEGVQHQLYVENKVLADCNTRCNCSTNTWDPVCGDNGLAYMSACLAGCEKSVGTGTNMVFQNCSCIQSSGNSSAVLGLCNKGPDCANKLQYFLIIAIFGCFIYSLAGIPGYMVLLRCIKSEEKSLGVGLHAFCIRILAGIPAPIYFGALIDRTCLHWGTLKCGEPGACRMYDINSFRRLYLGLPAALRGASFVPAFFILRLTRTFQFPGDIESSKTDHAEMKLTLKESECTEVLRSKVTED",
  "test": "TP_TRANSPORTER: uptake in Xenopus laevis oocytes",
  "format": "functional, cell-based",
  "details": "oocyte",
  "data": [
    {"compound": "O=C(O)CCCC[C@@H]1SC[C@@H]2NC(=O)N[C@@H]21", "note": "[BIOTIN]", "values": [
      {"measurement": "Activity", "value": "substrate [+]"}
    ]}
  ]
}
